The subject of one series is Male Sprague-Dawley rats. The series can be described thus: Example 1: prostate size and hormone secretion in intact male rats injected sc with racemic equol. The format is in vivo, rat. To be noted: intact males, 0.25 mg/kg sc 1/day for 4 days, vs control. On the procedure: Male Sprague-Dawley rats (400-500 grams) are obtained from Charles Rivers Laboratories (Wilmington, Mass., USA). Rats are caged in pairs and maintained on a 12-hour dark 12-hour light schedule (lights on at 0700 h) with ad libitum access to food and water.
One week following arrival, animals are given subcutaneous (sc) injections (1/day for 4 days) of either dimethylsulfoxide (DMSO) (vehicle control) or racemic equol (0.25 mg/kg). Eighteen hours after the final injection, animals are killed via decapitation and trunk blood and prostate are collected for analysis.

Series [1] is described as follows: Competition and binding studies of equol with other labelled steroids.
In a further series the test system is Male Long-Evans rats. The series can be described thus: Example 13: racemic equol injections in male rats on Phyto-Free diet. The format is in vivo, rat. The text has this:
Prior to initiation of a Phyto-Free diet period Male Long-Evans rats are fed a Phyto-200 diet, as described in previous examples. The rats are placed on a diet containing the Phyto-Free diet at approximately 52 days of age and randomly assigned to three groups. Baseline body weights after 14 days and 21 days on the Phyto-Free diet for all rats are similar, shown in FIGS. 43 and 44, respectively. Beginning at 73 days of age, rats receive daily subcutaneous 0.1 cc injections of vehicle (peanut oil), 1 milligram of a racemic mixture of equol in vehicle (0.83 mg/kg body weight/day), or 5 milligrams of a racemic mixture of equol in vehicle (4.2 mg/kg body weight/day) once every three days.

The subject of another series is GDX males. The series can be described thus: Examples 5 and 6: gonadectomized (GDX) male rats treated with DHTP, equol or both; histology. The format is in vivo, rat. On the procedure: One week following arrival, animals are gonadectomized (GDX) under isoflurane anesthesia and allowed to recover for 7 days. Following recovery, animals are assigned to the following groups 1) DMSO, 2) DHTP (2 mg/1 kg), 3) racemic equol (0.25 mg/kg), or 4) both DHTP and racemic equol. Injections are given subcutaneously daily for 4 days. Animals are killed via decapitation and trunk blood and tissues are collected for analysis.
Tissues, including prostate, testes and epididymis, are removed from the animal, dissected free of fat and connective tissues, weighed, fixed by immersion in 4% paraformaldehyde, and then sectioned at 15 μm on a cryostat. Tissue sections are mounted on charged slides (Superfrost Plus, Fisher Scientific, Pittsburgh, Pa.) prewarmed to 23° C., and stained with hematoxylin and eosin (H&E), dehydrated in ascending alcohol and cleared with xylene.

The test system of series [2] is Long-Evans rats, male offspring. Put plainly: Example 19: elevated plus maze of adult male offspring after pre- and early postnatal treatment. To be noted: offspring tested at about 90 days. The format is in vivo, rat. The protocol:
Pregnant Long-Evans rats were treated via daily subcutaneous injections from gestational day 14 through 20 and during lactation from postnatal day 2 through 25 with: 1) control-DMSO vehicle or, 2) genistein@ 3 mg/day or 3) equol@ 3 mg/day according to the treatment groups. All animals were fed a phytoestrogen-low diet throughout these studies (10 ppm isoflavones). There were no significant differences in maternal body weights just before birth among the treatment groups. […] The maternal and male offspring genistein and equol levels @ 25 days post birth) paralleled that of the treatments administered.
At approximately 90 days of age the male offspring were tested by treatments (control, genistein and equol) in the EPM that was video-taped for 3 minutes and later recorded for the number of entries into—and the percentage of total time spent—on the open arms, as previously described. […] Equol time intervals were 2-fold greater than genistein values and genistein levels were approximately 9-fold greater than controls.

A further series addresses T1, ERβ (Rattus norvegicus, UniProt Q62986).
T1 construct: Full length rat ERα expression vector (pcDNA-ERα; RH Price UCSF) and ERβ expression vector (pcDNA-ERβ; T A Brown, Pfizer; made in house; host or cells: TnT-coupled rabbit reticulocyte lysate in vitro translation (Promega)
The series can be described thus: Competition binding of equol enantiomers with [3H]E2 for in vitro translated ERβ. The protocol:
In vitro binding studies were performed to examine the relative affinities of S— and R-enantiomeric equol with the estrogen receptors ERα and ERβ.
Synthesis of Hormone Receptor Proteins: Full length rat ERα expression vector (pcDNA-ERα; RH Price UCSF) and ERβ expression vector (pcDNA-ERβ; T A Brown, Pfizer, Groton, […].) were used to synthesize hormone receptors in vitro using the TnT-coupled reticulocyte lysate system (Promega, Madison, Wis.) with T7-RNA polymerase, during a 90 min reaction at 30° C. Translation reaction mixtures were stored at −80° C. until further use.
Saturation isotherms: In order to calculate and establish the binding affinity of the S-equol and R-equol enantiomers for ERα and ERβ, 100 μL aliquots of reticulocyte lysate supernatant were incubated at optimal time and temperature; 90 min at room temperature (ERβ) and 18 hrs at 4° C. (ERα), with increasing (0.01-100 nm) concentrations of [3H] […] These times were determined empirically and represent optimal binding of receptor with estrogen. Nonspecific binding was assessed using a 300-fold excess of the ER agonist diethylstilbestrol, in parallel tubes. Following incubation, bound and unbound [3H]E2 were separated by passing the incubation reaction through a 1 mL lipophilic Sephadex LH-20 (Sigma-Aldrich Co., Saint Louis, Mo.) column Columns were constructed by packing a disposable pipette tip (1 mL; Labcraft, Curtin Matheson Scientific, Inc, Houston, Tex.) with TEGMD (10 mm Tris-Cl, 1.5 mm EDTA, 10% glycerol, 25 mm molybdate, and 1 mm dithiothreitol, pH 7.4)-saturated Sephadex according to previously published protocols (Wanda et al., 1986; O'Keefe and Handa, 1990). For chromatography, the columns were re-equilibrated with TEGMD (100 μL), and the incubation reactions were added individually to each column and allowed to incubate on the column for an additional 30 min. Following this incubation, 600 μL of TEGMD were added to each column, flow-through was collected, 4 mL scintillation fluid was added, and samples were counted (5 min each) in an 2900 TR Packard scintillation counter (Packard Bioscience, Meriden, Conn.).
Competition binding studies were used to assess the estrogenic properties of equol's S-equol and R-equol enantiomers. Based on the ability of S and R to compete with [3H]

Series [3] is described as follows: Bioavailability of R-equol after oral administration to a healthy adult. The format is in vivo, human. On the procedure:
20 mg of pure R-equol was administered orally to a healthy adult after an overnight fast. Blood samples were collected at timed intervals over the next 24 hours and the plasma concentration of equol was determined by isotope dilution gas chromatography-mass spectrometry with selected ion monitoring. Rapid appearance of equol is observed in the plasma with peak concentrations observed after 8 hours. The terminal elimination half-life of R-equol was approximately 8 hours.

T1 sequence (Q62986 whole entry): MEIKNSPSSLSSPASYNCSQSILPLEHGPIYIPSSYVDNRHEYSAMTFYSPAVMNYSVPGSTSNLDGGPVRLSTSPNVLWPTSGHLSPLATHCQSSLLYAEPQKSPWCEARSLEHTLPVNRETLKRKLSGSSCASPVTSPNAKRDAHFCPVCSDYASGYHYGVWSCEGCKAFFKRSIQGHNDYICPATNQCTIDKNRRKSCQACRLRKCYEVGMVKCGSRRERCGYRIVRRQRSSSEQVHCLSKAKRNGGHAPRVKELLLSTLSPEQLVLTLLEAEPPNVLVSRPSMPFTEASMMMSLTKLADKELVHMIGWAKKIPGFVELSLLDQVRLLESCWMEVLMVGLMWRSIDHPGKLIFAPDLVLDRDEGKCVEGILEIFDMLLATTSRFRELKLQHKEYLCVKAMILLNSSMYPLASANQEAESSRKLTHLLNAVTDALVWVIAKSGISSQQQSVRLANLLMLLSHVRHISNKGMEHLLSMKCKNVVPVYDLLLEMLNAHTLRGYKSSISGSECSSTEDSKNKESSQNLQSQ

As for `Oc1ccc(C2COc3cc(O)ccc3C2)cc1` (racemic) [equol, 7-hydroxy-3(4′hydroxyphenyl)-chroman], in the series with Male Sprague-Dawley rats, the “luteinizing hormone (LH)” value is on record as “significantly increased” and the prostate weight result is listed as “significant reduction”. The “binding to [3H]E2, [3H]T, [3H]DHEA, [3H]CORT and [3H]progesterone” value in series [1] was “without any occurrences of binding”. Further, the “reduction in adipose tissue mass” value in the series on Male Long-Evans rats (101-day-old rats, vs controls) is on record as “approximately 33%”. In addition, the testes weight result in the series with Male Long-Evans rats (28 days after start of injections) is “no significant alterations”. The “body weights and average body weight gains” value in the series on Male Long-Evans rats (at 80 and 88 days of age, 1 or 5 mg racemic equol sc, vs controls) is given as “not significantly different from controls”. Also, the “average body weight gains” value in the series on Male Long-Evans rats (at 95 and 101 days, vs control) is recorded as “significantly reduced”. Moreover, in the series on GDX males (GDX males, DHTP+equol), the “LH, in combination with DHTP” value is on record as “blocks the negative feedback effects of DHTP on LH secretion” and the “prostate weight, concomitant treatment with DHTP” value is listed as “blocks the effects of DHTP”. In addition, in the series with GDX males (GDX males, given alone, vs DMSO), the LH result is reported as “no effect on LH levels”. The prostate weight entry in the series on GDX males (GDX males, given alone, vs vehicle-treated GDX) is “no effect alone on prostate size”. For the same compound, the “plasma 5α-DHT, co-treatment of DHTP-treated animals with equol” value in the series on GDX males (GDX+equol+DHTP vs GDX+DHTP) was “further elevated, although, not significantly”. Further, in series [2] (3 mg/day sc to dams), the “entries into the open arms vs controls” value is “significantly greater” and the “time in the open arms vs controls” value was “significantly greater”. Also, the “open arm time intervals, fold greater than genistein values” in series [2] turned out to be 2 fold.
By Kd is commonly meant a measure of binding affinity in units of concentration. The half-life is the time in which the quantity being followed falls by half. Consider `Oc1ccc([C@@H]2COc3cc(O)ccc3C2)cc1` [R-equol], for which, on ERβ, the “affinity for ERβ, fold less” value is recorded as “approximately 100 fold”. At ERβ (competition with [3H]E2, in vitro translated ER), this compound gave a Kd of 0.0154 ± 0.00131 µM. In addition, the bioavailability result in series [3] (20 mg orally) was “extremely bioavailable”. Further, the “time of peak plasma concentrations” value in series [3] (20 mg orally after overnight fast, healthy adult) was found to be 8 h. Moreover, the “stability of the enantiomer in vivo (racemization, biotransformation)” value in series [3] (equol in plasma by ESI-MS after 20 mg orally) is given as “does not undergo any racemization or further biotransformation in the intestine”. Further, the half-life in series [3] (human, plasma, po, 20 mg orally, healthy adult, read-out: terminal elimination half-life (converted)) was about 8 h.

The values above are taken from patent publication US20070043108A1, “Use of equol for ameliorating or preventing neuropsychiatric and neurodegenerative diseases or disorders” (priority 2002, published 2007).
